Laboratory results: US20100160214A1 (SERENITY PHARMACEUTICALS CORPORATION, priority 2008, published 2010)
Read-outs that look alike come from different tables or passages of the source.

Legend:
clinical = details: human, in vivo; for CL/F / bioavailability / Tmax / half-life: both; for bioavailability: F % (fraction bioavailable)
Procedure: The open-label preliminary study of the effects and pharmacokinetics of the prototype composition was conducted with six male and six female healthy, water loaded, non-smoking volunteer subjects, following the protocol described generally below. In summary, each subject was dosed up to four times over a period of one week with dosing administered every other day. […] All subjects were screened prior to the first treatment, including evaluations of medical history, complete physical exam including nasopharyngeal exam, serum chemistry including serum osmolality, urinalysis including urine osmolality.
On day one all subjects were asked to have his/her morning void prior to breakfast, and thereafter subjects started the water loading process. […] To achieve a steady state diuresis, the subjects were directed to drink a volume of water corresponding to at least 1.5% and up to 3% of body weight. The water loading process started about two hours prior to the dosing of the first subject. Subjects were asked to void every 20 minutes. To ensure continuous water loaded state, the subjects replaced their urinary output loss with an equivalent amount of fluid. Insensible loss was not measured or replaced. When the urinary output rate exceeded 10 ml/min in two consecutive measurements (defined as water loaded state) in the subjects, dosing began. Subjects were maintained in the water loaded state with equivalent fluid intake versus fluid loss.
Blood sampling for pharmacokinetic determinations was performed at 1, 1.5, 2, 3, 4 and 6 hours post dose. Two seven ml blood samples were collected at each time point. […] 3.2 (Pharsight Corporation, USA). A plasma concentration value below the limit of quantitation (“LOQ”) followed by values above the limit was set at ‘LOQ/2’ for the analysis and for the descriptive statistics on concentrations. Values below LOQ not followed by values above the LOQ were excluded from the analysis, and set to zero in the descriptive statistics on concentrations.
(§1) Other than the dose level, all procedures were the same as those described for day one.
as §1
Other than the dosing paradigm, all procedures were the same as described on day one.
Assay values below the level of detection that occurred between two non-zero concentrations were considered to be “missing” for purposes of calculating the AUC. […] Accordingly, an average terminal half-life (Avg T1/2) was calculated for each subject that included a treatment with evaluable half-lives in that subject. […] The AUC could be calculated for each treatment and subject using the calculated average T1/2 value.
The AUCall is the AUC calculated using the trapezoidal rule that assumes that the concentration declines to 0.00 at the next sample collection time following the last quantifiable concentration. In the cases where concentrations had not declined to below the limit of detection by the time of the last scheduled sample, AUCall was the same as AUCtlqc.
The AUCtlqc is the AUC as calculated to the Time of the Last Quantifiable Concentration. This value is extrapolated using the ratio of the last quantifiable concentration and the terminal elimination rate to give the AUC∞. Therefore AUC∞ is always larger than the AUCtlqc. AUCall will also always be equal to or greater than AUCtlqc, but may be larger or smaller than AUC∞.

[1] = in vivo, cited from earlier work

CL/F (clinical): 383 mL/min | bioavailability (clinical): ~55% | CL/F (clinical; sc): 233 mL/min | Tmax (clinical; sc): 0.88 ± 0.349 h | half-life (clinical; sc, Avg T1/2): 1.68 ± 0.66 h | bioavailability (clinical; sc): 100% | half-life (clinical; sc, T1/2): 2.09 ± 0.32 h | Tmax (clinical; topical or ocular): 0.8 ± 0.406 h | half-life (clinical; topical or ocular, Avg T1/2): 1.2 ± 0.42 h | half-life (clinical; topical or ocular, T1/2): 1.39 ± 0.61 h | AUC∞* (modified AUC∞ using average T1/2) (clinical; sc): 0.00785 ± 0.00421 ng·h/mL | AUC∞* (modified AUC∞ using average T1/2) (clinical; topical or ocular): 0.00446 ± 0.00309 ng·h/mL
SMILES: NC(=O)CC[C@@H]1NC(=O)[C@H](Cc2ccccc2)NC(=O)[C@H](Cc2ccc(O)cc2)NC(=O)CCSSC[C@@H](C(=O)N2CCC[C@H]2C(=O)N[C@H](CCCN=C(N)N)C(=O)NCC(N)=O)NC(=O)[C@H](CC(N)=O)NC1=O [desmopressin, 1-desamino-8-D-arginine vasopressin]
bioavailability ([1]; human, inhaled or intranasal): 3-5% | half life ([1]; human): ≥ 1.5 h | range of Cmax ([1]; inhaled or intranasal, 20 ug): 6-10 fold | bioavailability ([1]; po): far less than one percent
